Measured values: patent US5773423A (priority 1994, dated 1998)
Residue numbers refer to the chain shown, from its start. Read-outs that look alike come from different tables or passages of the source.

Columns and labels:
[1] = target: T1, adenosine uptake sites in rat brain membranes (Rattus norvegicus, UniProt O54698); test: Competition for [3H]NBTI binding at adenosine uptake sites in rat striatal membranes; conditions: for Ki: read-out: Ki (NBTI), 0.3 nM [3H]NBTI, 30 min at 23° C., pH 7.4
T1 sequence (O54698 1-457): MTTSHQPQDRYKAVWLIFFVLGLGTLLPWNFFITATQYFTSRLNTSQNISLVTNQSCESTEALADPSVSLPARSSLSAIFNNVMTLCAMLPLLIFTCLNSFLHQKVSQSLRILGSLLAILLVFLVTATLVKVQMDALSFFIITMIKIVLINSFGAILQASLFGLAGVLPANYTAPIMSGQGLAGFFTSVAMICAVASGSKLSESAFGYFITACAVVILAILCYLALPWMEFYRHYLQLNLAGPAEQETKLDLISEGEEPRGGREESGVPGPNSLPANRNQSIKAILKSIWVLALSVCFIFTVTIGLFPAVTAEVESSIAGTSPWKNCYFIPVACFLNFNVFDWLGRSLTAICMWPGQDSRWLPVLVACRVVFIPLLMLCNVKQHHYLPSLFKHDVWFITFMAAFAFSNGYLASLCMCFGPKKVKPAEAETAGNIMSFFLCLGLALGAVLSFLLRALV

[2] = target: T2, A1 receptors from rat brain membranes (Rattus norvegicus, UniProt P25099); test: biochemical; type: binding
T2 construct: Rat cerebral cortical and striatal membranes were prepared; from tissue; host or cells: rat brain (cerebral cortical) membranes
T2 sequence (P25099 1-326): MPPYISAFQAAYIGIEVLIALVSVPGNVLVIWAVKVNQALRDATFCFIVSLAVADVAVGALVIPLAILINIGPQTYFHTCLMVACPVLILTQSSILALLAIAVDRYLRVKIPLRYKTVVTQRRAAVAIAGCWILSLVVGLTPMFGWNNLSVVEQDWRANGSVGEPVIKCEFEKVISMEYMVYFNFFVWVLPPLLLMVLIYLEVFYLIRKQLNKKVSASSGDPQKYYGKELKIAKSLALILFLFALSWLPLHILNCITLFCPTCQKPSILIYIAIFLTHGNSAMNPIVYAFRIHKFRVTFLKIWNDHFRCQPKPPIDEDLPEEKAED

[3] = target: T3, A2 receptors from rat striatal membranes (Rattus norvegicus, UniProt P30543); test: Radioligand binding at A2 (A2a) receptors, displacement of [3H]CGS 21680 (or [3H]NECA with 50 nM CPA) from rat striatal membranes
T3 construct: Rat cerebral cortical and striatal membranes were prepared; from tissue; host or cells: rat striatal membranes

[4] = target: T4, rat A3 receptors (Rattus norvegicus, UniProt P28647); test: Irreversible inhibition of radioligand binding at rat A3 receptors after preincubation
T4 construct: expressed in transfected cells; host or cells: CHO cells, transfected (the IC50); RBL-2H3 rat mast cells (endogenous) also named
T4 sequence (P28647 1-320): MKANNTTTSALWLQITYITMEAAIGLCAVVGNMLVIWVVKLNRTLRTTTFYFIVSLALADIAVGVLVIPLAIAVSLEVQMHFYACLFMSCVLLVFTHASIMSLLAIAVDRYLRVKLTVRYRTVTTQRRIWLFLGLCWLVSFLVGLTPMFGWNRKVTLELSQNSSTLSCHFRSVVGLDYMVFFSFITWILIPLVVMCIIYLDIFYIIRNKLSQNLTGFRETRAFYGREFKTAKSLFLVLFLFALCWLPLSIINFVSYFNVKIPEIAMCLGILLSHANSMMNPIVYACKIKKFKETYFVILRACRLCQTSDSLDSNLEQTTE

[5] = system: locomotor activity in mice; test: Locomotor activity in mice (open field, Digiscan activity monitor); type: in vivo, mouse (NIH Swiss); conditions: CSC 1 mg/kg
[6] = target: T5, A1 and A3 adenosine receptors in mouse brain membranes (Mus musculus, UniProt Q60612)
T5 sequence (Q60612 1-326): T2 sequence (P25099 1-326) with V151E, D155A, R157I, D316E, L319I, E325D

[7] = system: locomotor activity in mice; conditions: CSC 1 mg/kg, shown earlier; cited from earlier work
[8] = target: T6, A3 adenosine receptors in mouse brain membranes (Mus musculus, UniProt Q61618); test: [125I]AB-MECA saturation binding to A3 receptors in mouse brain membranes in the presence of 100 nM CPX
T6 construct: in mouse brain membranes; from tissue; host or cells: NIH Swiss mouse brain region membranes (cerebellum for the Kd/Bmax)
T6 sequence (Q61618 1-319): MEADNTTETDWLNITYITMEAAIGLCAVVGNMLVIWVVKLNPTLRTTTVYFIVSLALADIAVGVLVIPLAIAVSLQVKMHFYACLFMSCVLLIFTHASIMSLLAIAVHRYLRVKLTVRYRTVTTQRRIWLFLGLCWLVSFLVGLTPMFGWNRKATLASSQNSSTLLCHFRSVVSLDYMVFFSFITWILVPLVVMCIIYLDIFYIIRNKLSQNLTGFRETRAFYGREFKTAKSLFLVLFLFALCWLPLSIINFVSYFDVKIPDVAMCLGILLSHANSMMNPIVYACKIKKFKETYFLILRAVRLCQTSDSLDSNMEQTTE

[9] = system: A1 and A3 adenosine receptors in mouse brain membranes
[10] = target: T7, A3 adenosine receptors in rat brain membranes (Rattus norvegicus, UniProt P28647)
T7 sequence (P28647 1-320): T4 sequence (P28647 1-320)

[11] = target: T3, A2 receptors from rat striatal membranes; conditions: Table 2, footnotes d/e: literature; read-out: Ki (A2); cited from earlier work

T3 sequence (P30543 whole entry): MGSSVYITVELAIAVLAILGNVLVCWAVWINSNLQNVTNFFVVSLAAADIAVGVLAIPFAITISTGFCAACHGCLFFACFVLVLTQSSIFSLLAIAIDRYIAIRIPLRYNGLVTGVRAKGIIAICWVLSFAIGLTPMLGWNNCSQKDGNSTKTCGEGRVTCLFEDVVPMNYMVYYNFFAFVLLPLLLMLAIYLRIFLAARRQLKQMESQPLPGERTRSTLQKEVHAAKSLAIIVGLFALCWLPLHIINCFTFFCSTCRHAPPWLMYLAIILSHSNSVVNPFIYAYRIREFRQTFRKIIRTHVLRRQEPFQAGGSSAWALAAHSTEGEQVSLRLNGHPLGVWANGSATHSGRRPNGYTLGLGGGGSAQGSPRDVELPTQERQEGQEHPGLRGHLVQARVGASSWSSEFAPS

**Q.** With `OC[C@H]1O[C@@H](n2cnc3c(NCc4ccccc4)ncnc32)[C@H](O)[C@@H]1O` [Compound 7, N^6 -benzyladenosine, reference compound] as the compound, how does the Ki [1] read?
**A.** 203 ± 93 nM

**Q.** Which results are given for `CNC(=O)[C@H]1O[C@@H](n2cnc3c(NCc4cccc(N=C=S)c4)ncnc32)[C@H](O)[C@@H]1O` [N^6-(3-isothiocyanatobenzyl)adenosine-5'-N-methyluronamide]?
**A.** Ki [2]: 145 nM; irreversible inhibition at rat A1 receptors (in words) [2]: not at rat A1 or A2a receptors; Ki [3]: 272 nM; irreversible inhibition at rat A2a receptors (in words) [3]: not at rat A1 or A2a receptors; IC50 [4]: 50 nM; Kd of remaining A3 receptor sites (in words) [4]: No change was observed in the Kd value; irreversible inhibition of A3 binding (in words) ([4]; CHO cells or RBL-2H3 mast cells): irreversible inhibition of radioligand binding at rat A3 receptors

**Q.** Which results are given for `Cn1c(=O)c2c(nc(C=Cc3cccc(Cl)c3)n2C)n(C)c1=O` [Compound 134, 8-(3-chlorostyryl)caffeine]?
**A.** reversal of 3-IB-MECA-mediated locomotor depression (in words) [5]: small, statistically insignificant reversal; displacement of specific [125I]AB-MECA binding (in words) [6]: failed to displace specific binding of [^125 I]AB-MECA; reversal of APEC-elicited behavioral depression (in words) [7]: complete reversal

**Q.** Which Ki ([2]; Table 2, [3H]PIA, rat brain membranes, read-out: Ki (A1)) does the source give for `CNC(=O)[C@H]1O[C@@H](n2cnc3c(NCc4cccc(I)c4)nc(SC)nc32)[C@H](O)[C@@H]1O` [Example 46, N^6-(3-iodobenzyl)-2-methylthio-9-[5-(methylamido)-β-D-ribofuranosyl]-adenine] here?
**A.** 2140 ± 100 nM

**Q.** And the Ki ([3]; Table 2, [3H]CGS 21680, rat striatal membranes, read-out: Ki (A2))?
**A.** 3210 ± 1360 nM

**Q.** And the Ki [1]?
**A.** 49500 nM

**Q.** And the “Ratio of Ki (NBTI)/Ki ([125I]AB-MECA)” value ([1]; selectivity for cloned rat A3 receptors vs adenosine uptake site)?
**A.** 22,000

**Q.** With `CNC(=O)[C@H]1O[C@@H](n2cnc3c(NCc4cccc(I)c4)nc(Cl)nc32)[C@H](O)[C@@H]1O` [Example 44, 2-chloro-N^6-(3-iodobenzyl)-9-[5-(methylamido)-β-D-ribofuranosyl]-adenine] as the compound, how does the Ki [1] read?
**A.** 15200 nM

**Q.** For `CNC(=O)[C@H]1O[C@@H](n2cnc3c(NCc4ccc(N)c([125I])c4)ncnc32)[C@H](O)[C@@H]1O` [[^125 I]AB-MECA, [^125 I]4-amino-3-iodobenzyladenosine-5'-N-methyluronamide], which “A3 share of total specific binding, cerebellum and striatum” value ([8]; 0.4 nM [125I]AB-MECA) is on record?
**A.** 18 % of total specific binding

**Q.** What about the “A3 share of total specific binding, hippocampus and cortex” value ([8]; 0.4 nM [125I]AB-MECA) of the same compound?
**A.** 7-9 % of total specific binding

**Q.** And the Kd ([8]; mouse cerebellar membranes)?
**A.** 1.39 nM

**Q.** What about the Bmax cerebellum ([6]; cerebellum) of the same compound?
**A.** 120±5 fmol specifically bound/mg protein

**Q.** And the Bmax cortex ([6]; cortex)?
**A.** 159±15 fmol specifically bound/mg protein

**Q.** And the Bmax hippocampus ([6]; hippocampus)?
**A.** 215±17 fmol specifically bound/mg protein

**Q.** And the “Kd values (Scatchard analysis)” value ([6]; regions of mouse brain)?
**A.** 1.9 to 2.8 nM

**Q.** What about the Bmax striatum ([6]; striatum) of the same compound?
**A.** 123±23 fmol specifically bound/mg protein

**Q.** What about the “specific binding of total binding” value [9] of the same compound?
**A.** ca. 70 % of total binding

**Q.** What about the nonspecific binding ([9]; in the presence of 40 μM R-PIA) of the same compound?
**A.** approximately 30 % of the total binding

**Q.** What about the “Bmax in rat brain membranes” value [10] of the same compound?
**A.** 43 fmol/mg protein

**Q.** And the Ki [11]?
**A.** 197 nM
